Results published in US7087758B2, “Quinoline inhibitors of hyaki and hyak3 kinases” (SmithKline Beecham Corporation, priority 2001, dated 2006).
“And” between values parts separate entries of the source, which are not always exact repeats. Identical values can stand only once.

Biological target: T1, hYAK1 (Homo sapiens, UniProt Q92630)
T1 construct: DET1/DET2-tagged full length hYAK1 was expressed in Drosophila sf9 cells; DET1/DET2 tag (purified on Ni column); made in house; host or cells: "Drosophila sf9 cells" as printed (insect cells)
T1 sequence (Q92630 1-528 isoform Q92630-2): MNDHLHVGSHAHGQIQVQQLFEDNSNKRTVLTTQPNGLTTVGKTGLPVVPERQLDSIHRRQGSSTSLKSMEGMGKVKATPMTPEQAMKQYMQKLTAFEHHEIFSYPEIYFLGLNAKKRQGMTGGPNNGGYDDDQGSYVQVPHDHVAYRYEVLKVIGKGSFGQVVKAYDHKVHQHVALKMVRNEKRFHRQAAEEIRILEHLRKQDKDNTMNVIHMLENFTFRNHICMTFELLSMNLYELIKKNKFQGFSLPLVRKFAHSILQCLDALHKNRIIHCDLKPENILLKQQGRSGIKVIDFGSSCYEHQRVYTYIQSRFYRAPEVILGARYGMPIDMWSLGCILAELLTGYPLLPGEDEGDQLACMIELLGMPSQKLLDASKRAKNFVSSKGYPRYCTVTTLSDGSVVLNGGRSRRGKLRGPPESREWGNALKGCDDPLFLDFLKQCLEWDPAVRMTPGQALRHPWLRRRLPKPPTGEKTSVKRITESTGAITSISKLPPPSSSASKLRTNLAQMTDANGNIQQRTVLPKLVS
Experiment: FlashPlate kinase assay of hYAK1 (Ni-hYAK1)
Type: biochemical
Procedure: This same assay can be performed on a FlashPlate format in which the plate is coated with MBP or with the S164 peptide by incubation overnight at 4° C. in 100 ul of either substrate dissolved in Sodium Carbonate buffer, pH 8.8. When coating with MBP, a solution of 100 ug/ml MBP was used to coat wells with 100 ul (10 ug) MBP per well. When coating with Ser164, a solution of 0.4 mg/ml (0.25 mM) was used to coat wells with 100 ul (40 ug) Ser164 per well. An example of a FlashPlate assay protocol and typical results are given below:
• 1. Coat Maxisorp plates (Nunk, Immunoplate, Maxisorp™) with MBP or Ser164 as above. • 2. Wash plates once with kinase assay buffer (KB): 25 mM Hepes, pH 7.5; 0.2 mM NaV; 10 mM.-glycerol phosphate; 1 mM Na pyrophosphate • 3. Add enzyme (Ni-hYAK1, diluted in KB), DMSO or inhibitors (in KB) and keep on ice 30 min • 4. Add KB containing Mg/AJP to a [final] of 0.1 mM [.-33P]ATP and 10 mM MgCl2 • 5. Incubate with shaking, 1–2 hrs, RT • 6. Aspirate and wash 6×0.5 ml KB • 7. Read 33P incorporation in FP reader • 8. Blank=No enzyme added • 9. Reaction volume: 25, 50 or 100 ul • 10. 0.5 or 1.0 uCi 33P/0.1 mM ATP • 11. MBP-FP better than basic FP (in house coating) • 12. 37° C. incubation was not better (several time points) • 13. Other incubation times at RT were not better Results: […]

IC50 (0.1 ug hYAK1)	SMILES	IC50 (0.3 ug hYAK1)
–	COC(=O)[C@@]1(O)C[C@H]2O[C@]1(C)n1c3ccccc3c3c4c(c5c6ccccc6n2c5c31)C(=O)NC4 [Example K252a]	552 nM and 427 nM
190 nM	NC1=N/C(=C2/CCNC(=O)c3[nH]c(Br)cc32)C(=O)N1 [SKF-108752]	130 nM and 160 nM
